The subject of this assay is G401 cells. Kind of assay: G401 ELISA test. The format is cell-based. The note with it: Homo sapiens, G-401; G401 cells treated with compounds for 72 hours; ELISA detecting K27 and H3; read-out: G401_ELISA IC50. How it is done: • Plate Reader: Envision (Perkinelmner); plate shaker: IKA MTS 2/4; plate Washer: BioTek microplate wisher 405 select; Cell counter: Counterstar (Ruiyu-biotech); Cell culture incubator: MCO-15AC (ThermoFisher); Pipette: BioHit Multichannel. Pipette: 0.2-10 μL, 10-300 μL, 50-1200 μL; Centrifuge: Thermo Centrifuge ST 40R; Pure water system: Millipore Milli-Q Reference system; Refrigerator: Haier −80 degree, −20 degree, and 4-degree refrigerators; cell cryopreservation box: Mr. Frosty™ Gradient Cooling Box Cat #5100-0001
• McCoys 5A (Modified) culture medium (ATCC); FBS (Gibco); 0.25% Trypsin/EDTA (Gibco); PBS (Hyclone); Penicillin/Streptomycin(100×) (Gibco); DMSO (Sigma); 384 cell culture plate (Corning); 384 detection plate (Greiner); 96 well plate (compound dilution) (Haimen, Qunchao); T75 Cell Culture Bottle (Corning)
G401 cells were seeded in a 384-well cell culture plate and incubated overnight at 37° C. in a 5% CO2 cell culture incubator, after which the cells were treated with compounds of different concentrations for 72 hours. The 384-well cell culture plate was taken out and upside down in a centrifuge to centrifugeat 300 rpm for 1 minute. After centrifugation, the 384-well cell culture plate was washed twice with PBS, added with lysis solution and lysed for 60 minutes. Then neutralization buffer was added for mixing and incubation was continued for 30 minutes. 20 ul (for detecting K27) and 10 ul (for detecting H3) of cell lysate were extracted from the 384-well cell culture plate and transferred to a 384 ELISA detection plate and incubate overnight at 4° C. The next day, the 384 ELISA plate was taken out and washed 5 times with TBST in a microplate washer. Then, the plate was added with a blocking solution and sealed at room temperature for 1 hour. The blocking solution was discarded and the primary antibody was added and then the plate was incubated at room temperature for 1 hour. After incubation, the plate was washed with TBST 5 times in a microplate washer, then added with secondary antibody and incubated at room temperature for 1 hour. After incubation, the plate was washed with TBST 5 times in a microplate washer, and finally added with color developer for color development. The plate was read with Envision plate reader. The obtained data was converted into inhibition rate using the following calculation method: % Inhibition rate=100−100*(compound absorbance−positive control absorbance)/(negative control absorbance−positive control absorbance), and then the inhibition rate data was subjected to curve fitting using the “logarithmic (inhibitor) and reaction-variable slope (four parameters)” model in GraphPad Prism 5 software.
The inhibition rate of the compound was calculated as follows: […]
The compounds of the present invention were tested according to the above experimental method, and some results were shown in Table 3. The test results were classified by A, B, and C, wherein A represents IC50≤0.1 uM; B represents 0.1 uM<IC50≤1 uM; C represents IC50>1 uM

Structures are written as SMILES. pIC50: −log10 of the molar value.

On to `O=C(Cc1cnc(NCC23CCC(Nc4ccc5ccnc(Cl)c5n4)(CC2)CC3)nc1)NC1COC1` [PA046, 2-[2-[[4-[(8-chloro-1,7-naphthyridin-2-yl)amino]-1-bicyclo[2.2.2]octyl]methylamino]pyrimidin-5-yl]-N-(oxetan-3-yl)acetamide], for which the pIC50 was ≥ 7.00. Next, `COc1nccc2ccc(Nc3ccc(CNc4ncc(CC(=O)N5CCC(O)C5)cn4)cc3F)nc12` (stereo not shown) [PA232]: 6.00 to 7.00; `COc1nccc2ccc(Nc3ccc(CNc4ncc(CNCc5ccno5)cn4)cc3F)nc12` [PA258]: ≥ 7.00; `COc1nccc2ccc(Nc3ccc(CNc4ncc(CC(=O)N5CCC56COC6)cn4)cc3F)nc12` [PA215]: 6.00 to 7.00.

On to `COc1nccc2ccc(Nc3ccc([C@H](C)Nc4ncc(CC(=O)N(CCC#N)CCC#N)cn4)cc3F)nc12` [PA192], for which the pIC50 was ≥ 7.00. Next, `CNc1nccc2ccc(Nc3ccc(CNc4ncc(CC(=O)NC5COC5)cn4)cc3)nc12` [PA068]: 6.00 to 7.00. With `O=C(Cc1cnc(NC(CO)C23CCC(Nc4ccc5ccnc(Cl)c5n4)(CC2)CC3)nc1)NC1COC1` (stereo not shown) [PA264] the figure was ≥ 7.00. With `COc1nccc2ccc(NC34CCC(CNc5ncc(CC(=O)NC6COC6)cn5)(CC3)CC4)nc12` [PA079] the figure was ≥ 7.00; with `COc1nccc2ccc(Nc3ccc([C@H](C)Nc4ncc(CNC5C[S+]([O-])C5)cn4)cc3F)nc12` (stereo partly shown) [PA175], ≥ 7.00. For the compound `COc1nccc2ccc(Nc3ccc(CNc4ncc(C(C)C(=O)NC5COC5)cn4)cc3)nc12` (racemic) [PA041, 2-[2-[[4-[(8-methoxy-1,7-naphthyridin-2-yl)amino]phenyl]methylamino]pyrimidin-5-yl]-N-(oxetan-3-yl) propanamide], the pIC50 is ≥ 7.00. With `O=C(Cc1cnc(NCc2ccc(Nc3ccc4ccnc(Cl)c4n3)cc2)nc1)NC1COC1` [PA010] the figure was 6.00 to 7.00. Next, `COc1nccc2ccc(Nc3ccc([C@H](C)Nc4ncc(CN5CCN(S(C)(=O)=O)CC5)cn4)cc3F)nc12` [PA189]: ≥ 7.00; `CC(C(=O)NC1COC1)c1cnc(N[C@@H](C)C23CCC(Nc4ccc5ccnc(Cl)c5n4)(CC2)CC3)nc1` (single isomer, unassigned) [PA166]: ≥ 7.00. With `CC(C(=O)N(CCC#N)C1COC1)c1cnc(N[C@@H](C)C23CCC(Nc4ccc5ccnc(Cl)c5n4)(CC2)CC3)nc1` (stereo partly shown) [PA177] the figure was ≥ 7.00.

With `COc1nccc2ccc(Nc3ccc(CNc4ncc(CC(=O)NC5COC5)cn4)cc3F)nc12` [PA153], the negative logarithm of the IC50 (pIC50) was ≥ 7.00.

As for `Cc1ccc2ccc(Nc3ccc([C@H](C)Nc4ncc(CN(CC(=O)O)C5CS(=O)(=O)C5)cn4)cc3F)nc2c1Cl` [PA268], the pIC50 was ≥ 7.00. Next, `C[C@H](Nc1ncc(CC(=O)NC2COC2)cn1)C12CCC(Nc3ccc4ccnc(Cl)c4n3)(CC1)CC2` [PA176]: ≥ 7.00; `COc1nccc2ccc(Nc3ccc([C@@H](CO)Nc4ncc(CC(=O)NC5COC5)cn4)cc3F)nc12` [PA256]: < 6.00; `COc1nccc2ccc(Nc3ccc([C@H](C)Nc4ccc(NC(=O)NC5COC5)cn4)cc3F)nc12` [PA238]: 6.00 to 7.00. With `COc1nccc2ccc(Nc3ccc(CNc4ncc(CNCc5cn[nH]c5)cn4)cc3F)nc12` [PA234] the figure was 6.00 to 7.00; with `COc1nccc2ccc(Nc3ccc([C@H](C)Nc4ncc(CN5CCS(=O)(=O)CC5)cn4)cc3F)nc12` [PA194], ≥ 7.00; with `COc1nccc2ccc(Nc3ccc([C@H](C)Nc4ncc([C@H](C)C(=O)NC5COC5)cn4)cc3F)nc12` [PA186], ≥ 7.00. With `COc1nccc2ccc(Nc3ccc(CNc4ncc(CC(=O)NC5COC5)cn4)cn3)nc12` [PA070] the figure was < 6.00; with `COc1nccc2ccc(Nc3ccc([C@H](C)Nc4ncc(C(N)C(=O)NC5COC5)cn4)cc3F)nc12` (stereo partly shown) [PA205], ≥ 7.00; with `COc1nccc2ccc(Nc3ccc([C@H](C)Nc4ncc(CC(=O)NC5CCCC5OC)cn4)cc3F)nc12` (stereo partly shown) [PA222], 6.00 to 7.00.

Consider `COc1nccc2ccc(Nc3ccc(CNc4ncc(CC(=O)NCCO)cn4)cc3)nc12` [PA151], for which the pIC50 was < 6.00. As to `COc1nccc2ccc(Nc3ccc(CNc4ncc(CC(=O)N5CC6(COC6)C5)cn4)cc3F)nc12` [PA251], the pIC50 is < 6.00. Next, `O=C(Cc1cnc(NCc2ccc(Nc3ccc4ccncc4n3)cc2)nc1)NC1COC1` [PA048]: < 6.00; `Cn1ccc2ccc(Nc3ccc(CNc4ncc(CC(=O)NC5COC5)cn4)cc3)nc2c1=O` [PA255]: < 6.00. For the compound `COc1nccc2ccc(Nc3ccc([C@H](C)Nc4ncc(CC(=O)NC5COC5)cn4)cc3)nc12` [PA061, 2-(2-((1-(4-((8-methoxy-1,7-naphthyridin-2-yl)amino)phenyl)ethyl)amino)pyrimidin-5-yl) acetic acid N-(oxetan-3-yl) acetamide], the pIC50 was ≥ 7.00. With `COc1nccc2ccc(Nc3ccc([C@H](C)Nc4ncc(C=CC5CCS(=O)(=O)CC5)cn4)cc3F)nc12` [PA213] the figure was 6.00 to 7.00; with `COc1nccc2ccc(Nc3ccc(C(C)Nc4ncc(CC(=O)NC5COC5)cn4)cc3)nc12` (racemic) [PA039, 2-(2-((1-(4-((8-methoxy-1,7-naphthyridin-2-yl)amino)phenyl)ethyl)amino)pyrimidin-5-yl) acetic acid N-(oxetan-3-yl) acetamide], 6.00 to 7.00; with `COc1ccc2ccc(Nc3ccc(CNc4ncc(CC(=O)NC5COC5)cn4)cc3)nc2n1` [PA073], < 6.00. With `COc1nccc2ccc(Nc3ccc(CNc4ncc(CNCc5cocn5)cn4)cc3F)nc12` [PA239], the pIC50 was 6.00 to 7.00. With `COc1nccc2ccc(Nc3ccc(CNc4ccc(CC(=O)NC5COC5)cc4)cc3)nc12` [PA081] the figure was 6.00 to 7.00; with `Cc1ccc2ccc(NC34CCC(C(C)Nc5ncc(CC(=O)NC6COC6)cn5)(CC3)CC4)nc2c1Cl` (stereo not shown) [PA183], ≥ 7.00; with `COc1nccc2ccc(Nc3ccc([C@H](C)Nc4ncc(CNCCC#N)cn4)cc3F)nc12` [PA181], ≥ 7.00. Next, `C[C@@H](Nc1ncc(CC(=O)NC2COC2)cn1)C12CCC(Nc3ccc4ccnc(Cl)c4n3)(CC1)CC2` [PA209]: 6.00 to 7.00; `COc1nccc2ccc(Nc3ccc([C@H](C)Nc4ncc(CN5CC(C#N)C5)cn4)cc3F)nc12` [PA173]: ≥ 7.00. Next, `COc1nccc2ccc(Nc3ccc([C@H](C)Nc4ncc(CC(=O)NC5CC(F)(F)C5)cn4)cc3F)nc12` [PA216]: 6.00 to 7.00.

The record behind these values is patent publication US20260015352A1, “METHYLTRANSFERASE INHIBITOR AND USE THEREOF” (CYTOSINLAB THERAPEUTICS CO., LTD., priority 2022, published 2026).
